These results are taken from patent US20060035901A1, “Methotrexate derivatives useful for treating cancer and arthritis” (Serenex, Inc., priority 2004, published 2006).

The test system of assay [1] is NCI-H460 (lung; large cell carcinoma). Put plainly: Cell proliferation assay (WST-1, Cyquant DNA), NCI-H460. The assay is classed as cell-based. The following applies: NCI-H460 cells. The method, then: (§1) A panel of cancer cell lines was obtained from the DCTP Tumor Repository, National Cancer Institute (Fredrick, Md.) or ATCC (Rockville, Md.). Cell cultures were maintained in Hyclone RPMI 1640 medium (Logan, Utah) supplemented with 10% fetal bovine serum and 20 mM HEPES buffer, pH 7.2, at 37° C., 5% CO2 atmosphere. Cultures were maintained at sub-confluent densities.
(§2) For proliferation assays, cells were seeded with the appropriate medium into 96 well plates at 1,000-2,000 cells per well, depending on cell line, and were incubated overnight. The following day, an amount of test compound, DMSO solution (negative control), or Actinomycin D (positive control) was added to the appropriate wells as 10× concentrated stocks prepared in phosphate buffered saline. […] Optical density was determined for each well a 450 nm using a Tecan GniosPro plate reader (RTP, NC). The percentage of cell growth was then determined by comparing the cell growth in the presence of test compounds to the DMSO vehicle control treated cells (100% growth) and […] Actinomycin D treated cells (0% growth).
(§3) Immediately after the WST-1 determination, the medium was removed from the NCI-H460 and HUVEC cell lines, and the plates stored at −80° C. Using these assay plates, relative DNA amounts in each well were determined using the Cyquant DNA assay kit from […] (Eugene, Oreg.) following the manufacturer's directions. […]
A general note: Tetrazolium dyes change colour on reduction, which living cells bring about.

Assay [2] deals with NCI/ADR Res (breast; adenocarcinoma). Put plainly: Cell proliferation assay (WST-1), NCI/ADR Res. It is filed as cell-based. The following applies: NCI/ADR Res cells. As to the method:
as §1
as §2, with “saline. The cell plates were then incubated for an additional 2-5 days, dependent on cell line, to allow for proliferation to occur.” for “saline.”

Assay [3] has as its system SF-268 (central nervous system; anaplastic astrocytoma). Kind of assay: Cell proliferation assay (WST-1), SF-268. The following applies: SF-268 cells. It is filed as cell-based. As to the method:
as §1
as §2, with “saline. The cell plates were then incubated for an additional 2-5 days, dependent on cell line, to allow for proliferation to occur.” for “saline.”

For assay [4], the system named is SK-Mel 5 (skin; melanoma). Put plainly: Cell proliferation assay (WST-1), SK-Mel 5. It is filed as cell-based. Conditions: SK-Mel 5 cells. The method, then: as §1
as §2, with “saline. The cell plates were then incubated for an additional 2-5 days, dependent on cell line, to allow for proliferation to occur.” for “saline.”

The next assay relates to SkBr (breast cancer). Kind of assay: Cell proliferation assay (WST-1), SkBr. It is filed as cell-based. The following applies: SkBr cells. The method, then: as §1
as §2, with “saline. The cell plates were then incubated for an additional 2-5 days, dependent on cell line, to allow for proliferation to occur.” for “saline.”

The test system of assay [5] is Lncap (prostate; carcinoma). Put plainly: Cell proliferation assay (WST-1), Lncap. It is filed as cell-based. Conditions: Lncap cells. As to the method: as §1
as §2, with “saline. The cell plates were then incubated for an additional 2-5 days, dependent on cell line, to allow for proliferation to occur.” for “saline.”

The test system of assay [6] is Human umbilical vein endothelial cells (HUVEC). Kind of assay: Cell proliferation assay (WST-1, Cyquant DNA), HUVEC. The assay is classed as cell-based. As to the method: Human umbilical vein endothelial cells (HUVEC) were purchased from Clonetics, a division of Cabrex (Walkersville, Md.). Cultures were established from cryopreserved stocks using Clonetics EGM-2 medium supplemented with 20 mM HEPES, pH 7.2, at 37° C., 5% CO2 atmosphere.
as §2, §3

In assay [7] the test system is DMS-114 (N/A; small cell). Put plainly: Cell proliferation assay (WST-1), DMS-114. Conditions: DMS-114 cells. The assay is classed as cell-based. The method, then:
as §1
as §2, with “saline. The cell plates were then incubated for an additional 2-5 days, dependent on cell line, to allow for proliferation to occur.” for “saline.”

The test system of assay [8] is MCF-7 (mammary; adenocarcinoma). Put plainly: Cell proliferation assay (WST-1), MCF-7. It is filed as cell-based. The following applies: MCF-7 cells. As to the method: as §1
as §2, with “saline. The cell plates were then incubated for an additional 2-5 days, dependent on cell line, to allow for proliferation to occur.” for “saline.”

Another assay deals with EGFR (Homo sapiens, UniProt P00533). Kind of assay: Elution of EGFR from ATP-Sepharose column by compound (Proteome Mining), IC50 estimate. It is filed as binding. The following applies: estimated from percent of protein eluted from ATP-Sepharose column, gel densitometry; read-out: Approximate IC50 for EGFR. The method, then: A proteome containing a known quantity of Her2, EGFR, and B-Raf was run over an ATP-Sepharose™ column in order to bind all purine-binding proteins. See, WO 00/63694 and U.S. Provisional Application No. 60/453,697 filed Jan. 22, 2003, each of which is incorporated by reference in its entirety. The ATP-Sepharose™ was washed several times, and then eluted with the compound of Formula III. The experiment was run in duplicate at concentrations of 20 μM, 100 μM, and 500 μM of the compound of Formula III. The eluted fractions were run on a 1-dimensional SDS polyacrylamide gel. Gels were stained with a fluorescent stain such as sypro ruby (a highly sensitive fluorescent protein stain that can readily detect less than 1 fmol of total protein, i.e., less than 0.04 ng for a 40 kDa protein). The gels were imaged using a standard flat bed gel imager and the amount of protein estimated by densiometry. The percent of protein eluted from the column at each concentration was determined and IC50 values were calculated from these estimates. Where necessary, the eluted proteins were cut out of the gel, and identified using mass spectral techniques.
EGFR, sequence (P00533 25-1210, species assumed): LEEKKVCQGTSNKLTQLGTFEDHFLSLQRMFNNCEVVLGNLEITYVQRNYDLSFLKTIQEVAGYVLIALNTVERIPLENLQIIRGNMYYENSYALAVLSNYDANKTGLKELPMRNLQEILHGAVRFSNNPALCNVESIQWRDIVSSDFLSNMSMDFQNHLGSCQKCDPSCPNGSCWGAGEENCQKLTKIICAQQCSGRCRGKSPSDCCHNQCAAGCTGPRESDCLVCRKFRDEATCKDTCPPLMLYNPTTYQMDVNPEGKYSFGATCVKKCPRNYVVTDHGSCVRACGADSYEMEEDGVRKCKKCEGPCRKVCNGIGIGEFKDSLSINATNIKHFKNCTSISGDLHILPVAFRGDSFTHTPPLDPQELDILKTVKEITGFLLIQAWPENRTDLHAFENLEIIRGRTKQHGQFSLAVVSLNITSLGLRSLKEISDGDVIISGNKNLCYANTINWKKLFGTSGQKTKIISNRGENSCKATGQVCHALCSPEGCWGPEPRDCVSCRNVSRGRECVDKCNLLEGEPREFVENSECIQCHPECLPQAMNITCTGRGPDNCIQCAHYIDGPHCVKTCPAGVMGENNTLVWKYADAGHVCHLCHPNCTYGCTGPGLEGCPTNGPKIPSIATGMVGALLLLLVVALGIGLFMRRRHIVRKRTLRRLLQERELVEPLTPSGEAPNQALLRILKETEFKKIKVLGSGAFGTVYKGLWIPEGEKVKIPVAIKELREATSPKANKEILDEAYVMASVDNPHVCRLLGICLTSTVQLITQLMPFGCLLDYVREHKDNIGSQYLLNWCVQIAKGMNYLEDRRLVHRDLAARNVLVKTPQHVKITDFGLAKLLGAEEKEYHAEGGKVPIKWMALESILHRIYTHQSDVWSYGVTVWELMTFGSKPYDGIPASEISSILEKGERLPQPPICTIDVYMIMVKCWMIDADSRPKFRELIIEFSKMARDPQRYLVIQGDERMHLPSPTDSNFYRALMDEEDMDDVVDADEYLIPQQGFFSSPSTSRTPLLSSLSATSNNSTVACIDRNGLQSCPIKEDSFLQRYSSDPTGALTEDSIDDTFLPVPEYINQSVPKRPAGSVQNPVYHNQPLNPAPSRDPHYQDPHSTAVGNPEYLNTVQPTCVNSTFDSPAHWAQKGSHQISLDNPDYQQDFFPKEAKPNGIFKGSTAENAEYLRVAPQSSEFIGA
These steps were repeated with each of the compounds of Formulas IV-X, MTX, and the c series derivative.

The test system of assay [9] is SR (lymphoma, pleural effusion). Kind of assay: Cell proliferation assay (WST-1), SR. The assay is classed as cell-based. The following applies: SR cells. The method, then:
as §1
as §2, with “saline. The cell plates were then incubated for an additional 2-5 days, dependent on cell line, to allow for proliferation to occur.” for “saline.”

The subject of assay [10] is HT29 (colon; adenocarcinoma, GRIII). Put plainly: Cell proliferation assay (WST-1), HT29. The following applies: HT29 cells. It is filed as cell-based. The method, then:
as §1
as §2, with “saline. The cell plates were then incubated for an additional 2-5 days, dependent on cell line, to allow for proliferation to occur.” for “saline.”

The test system of assay [11] is OVCAR-3 (ovarian; adenocarcinoma). Put plainly: Cell proliferation assay (WST-1), OVCAR-3. The assay is classed as cell-based. Conditions: OVCAR-3 cells. As to the method:
as §1
as §2, with “saline. The cell plates were then incubated for an additional 2-5 days, dependent on cell line, to allow for proliferation to occur.” for “saline.”

For a further assay, the system named is PC-3 (N/A; carcinoma). Kind of assay: Cell proliferation assay (WST-1), PC-3. It is filed as cell-based. The following applies: PC-3 cells. As to the method:
as §1
as §2, with “saline. The cell plates were then incubated for an additional 2-5 days, dependent on cell line, to allow for proliferation to occur.” for “saline.”

The test system of assay [12] is OVCAR8 (ovarian; adenocarcinoma). Put plainly: Cell proliferation assay (WST-1), OVCAR8. The assay is classed as cell-based. Conditions: OVCAR8 cells. As to the method: as §1
as §2, with “saline. The cell plates were then incubated for an additional 2-5 days, dependent on cell line, to allow for proliferation to occur.” for “saline.”

Assay [13] concerns T47D (mammary; carcinoma). Put plainly: Cell proliferation assay (WST-1), T47D. It is filed as cell-based. The following applies: T47D cells. As to the method:
as §1
as §2, with “saline. The cell plates were then incubated for an additional 2-5 days, dependent on cell line, to allow for proliferation to occur.” for “saline.”

For another assay, the system named is BT474 (breast cancer). Kind of assay: Cell proliferation assay (WST-1), BT474. It is filed as cell-based. Conditions: BT474 cells. As to the method:
as §1
as §2, with “saline. The cell plates were then incubated for an additional 2-5 days, dependent on cell line, to allow for proliferation to occur.” for “saline.”

Regarding `C#CCN(Cc1cnc2nc(N)nc(N)c2n1)c1ccc(C(=O)NC(CCC(=O)O)C(=O)O)cc1C` (centres unmarked) [Formula III, 2-{4-[(2,4-diamino-pteridin-6-ylmethyl)-prop-2-ynyl-amino]-3-methyl-benzoylamino}-pentanedioic acid], the “Fold Improvement in Cell Proliferation IC50 Compared to MTX” value (“Fold Improvement” for short) was more than 1 fold in assay [1]; more than 1 fold in assay [2]; more than 4 fold in assay [3]; more than 4 fold in assay [4]; more than 2 fold in the assay with SkBr (breast cancer); 7 fold in assay [5]. Moreover, the “Fold Improvement” value is reported as more than 2 fold in [6]; more than 4 fold in [7]; more than 1 fold in assay [8]; more than 4 fold in assay [9]; more than 6 fold in [10]; more than 3 fold in assay [11]. Further, the “Fold Improvement” value was more than 1 fold in the assay on PC-3 (N/A; carcinoma), more than 2 fold in [12], 3 fold in assay [13] and more than 5 fold with BT474 (breast cancer). In addition, on EGFR, the IC50 is 5 µM.

What is called IC50 is the concentration that gives 50% inhibition.
